Experiment [1] concerns Wnt activity (Sp5-Luc reporter in SW480 cells). The experiment can be described thus: Screening assay for Wnt activity: Sp5-Luc reporter gene assay in SW480 colon carcinoma cells. It counts as cell-based, human. As to conditions: Homo sapiens, 36 to 48 hours. From the text: The screening assay for Wnt activity is described as follows. Reporter cell lines can be generated by stably transducing cancer cell lines (e.g., colon cancer) or primary cells (e.g., IEC-6 intestinal cells) with a lentiviral construct that includes a Wnt-responsive promoter driving expression of the firefly luciferase gene.
SW480 colon carcinoma cells were transduced with a lentiviral vector expressing luciferase with a human Sp5 promoter consisting of a sequence of eight TCF/LEF binding sites. SW480 cells stably expressing the Sp5-Luc reporter gene and a hygromycin resistance gene were selected by treatment with 150 μg/mL of hygromycin for 7 days. These stably transduced SW480 cells were expanded in cell culture and used for all further screening activities. […] For Sp5-Luc reporter gene assays, the cells were plated at 4,000 cells/well in 384-well plates with a DMEM medium containing 1% fetal bovine serum, and 1% Penicillin-Streptomycin and incubated for 36 to 48 hours at 37° C. and 5% CO2. Following incubation, 15 μl of BriteLite Plus luminescence reagent (Perkin Elmer) was added to each well of the 384-well assay plates. The plates were placed on an orbital shaker for 2 min and then luminescence was quantified using the Envision (Perkin Elmer) plate reader. Readings were normalized to DMSO only treated cells, and normalized activities were utilized for EC50 calculations using the dose-response log (inhibitor) vs. response-variable slope (four parameters) nonlinear regression feature available in GraphPad Prism 5.0 (or Dotmatics).

Experiment [2] relates to primary human fibroblasts derived from IPF patients (LL29 cells). The experiment can be described thus: Inhibition of the fibrotic process: αSMA staining in TGF-β1 treated LL29 fibroblasts. It counts as cell-based. The following applies: Homo sapiens, Fibroblast, 96 h; LL29 cells, TGF-β1 20 ng/mL, 4 days, % αSMA positive cells. On the procedure:
Representative compounds were screened using primary human fibroblasts (derived from IPF patients) treated with TGF-β1 to determine their ability to inhibit the fibrotic process.
LL29 cells were plated at 1,500 cells/well in 70 μL/well F12 medium supplemented with 1% Fetal Bovine Serum. […] Wells treated with TGF-β1 and containing DMSO were used as positive control, and cells with only DMSO were negative control. […] Following incubation for 4 days, SYTOX green nucleic acid stain (Life Technologies [Thermo Fisher Scientific]) was added to the wells at a final concentration of 1 μM and incubated at room temperature for 30 min.

The next experiment addresses DYRK1A kinase (Homo sapiens (Human), UniProt Q13627). The experiment can be described thus: DYRK1A kinase assay (Ser/Thr 18 peptide Z-lyte FRET). It counts as biochemical. The following applies: read-out: EC50 (method: IC50). The procedure: Representative compounds were screened using the assay procedure for DYRK1A kinase activity as described below.
This is a non-radioactive assay using fluorescence resonance energy transfer (FRET) between coumarin and fluorescein to detect kinase activity which is represented as a ratio of coumarin emission/fluorescein emission.
The mixture was allowed to incubate with the representative compounds for one hour at room temperature. All reactions were performed in duplicate. Unphosphorylated (“0% Control”) and phosphorylated (“100% control”) forms of Ser/Thr 18 served as control reactions. Additionally, an 11-point dose-response curve of Staurosporine (1 uM top) was run to serve as a positive compound control.
After incubation, Development Reagent A was diluted in Development Buffer then added to the reaction and allowed to further incubate for one hour at room temperature.

The subject of experiment [3] is SW480 colon carcinoma cells. Description: Cell viability assay (CellTiter-Glo) in SW480 colon carcinoma cells. It counts as cell-based, human. As to conditions: Homo sapiens, 96 h, four days. On the procedure: Representative compounds were screened using the assay procedure to assess the effect on cell viability as described below.
SW480 colon carcinoma cells were transduced with a lentiviral vector expressing luciferase with a human Sp5 promoter consisting of a sequence of eight TCF/LEF binding sites. SW480 cells stably expressing the Sp5-Luc reporter gene and a hygromycin resistance gene were selected by treatment with 150 μg/mL of hygromycin for 7 days. These stably transduced SW480 cells were expanded in cell culture and used for all further screening activities.
For the Cell Viability Assays, the cells were plated at 2,000 cells/well in 384-well plates with a DMEM medium containing 1% fetal bovine serum, and 1% Penicillin-Streptomycin and incubated for […] at 37° C. and 5% CO2. Eight replicates of DMSO-treated cells served as controls and cells treated with compound were performed in duplicate.
After incubation, 10 μL of CellTiter-Glo (Promega) was added to each well allowed to incubate for approximately 12 minutes. This reagent “results in cell lysis and generation of a luminescent signal proportional to the amount of ATP present. The amount of ATP is directly proportional to the number of cells present in culture, in agreement with previous reports. The CellTiter-Glo® Assay generates a “glow-type” luminescent signal, produced by the luciferase reaction (Promega.com)”.

A further experiment concerns the target GSK3β kinase (Homo sapiens (Human), UniProt P49841). The experiment can be described thus: GSK3β kinase assay (Ser/Thr 09 peptide Z-lyte FRET). It counts as biochemical. As to conditions: read-out: EC50 (method: IC50). On the procedure:
Representative compounds were screened using the assay procedure for GSK3β kinase activity as described below.
This is a non-radioactive assay using fluorescence resonance energy transfer (FRET) between coumarin and fluorescein to detect kinase activity which is represented as ratio of coumarin emission/fluorescein emission.
The mixture is allowed to incubate with the representative compounds for one hour at room temperature. All reactions were performed in duplicate. Unphosphorylated (“0% Control”) and phosphorylated (“100% control”) forms of Ser/Thr 18 serve as control reactions.
After incubation, diluted Development Buffer is added to the reaction and allowed to further incubate for one hour at room temperature.
Dose-response curves are generated and inhibitory concentration (IC50) values are calculated using non-linear regression curve fit in the Dotmatics' Studies Software (Bishops Stortford, UK).

Where only a bound is given, the exact number is not on record here.

GSK3β kinase, sequence (P49841 whole entry): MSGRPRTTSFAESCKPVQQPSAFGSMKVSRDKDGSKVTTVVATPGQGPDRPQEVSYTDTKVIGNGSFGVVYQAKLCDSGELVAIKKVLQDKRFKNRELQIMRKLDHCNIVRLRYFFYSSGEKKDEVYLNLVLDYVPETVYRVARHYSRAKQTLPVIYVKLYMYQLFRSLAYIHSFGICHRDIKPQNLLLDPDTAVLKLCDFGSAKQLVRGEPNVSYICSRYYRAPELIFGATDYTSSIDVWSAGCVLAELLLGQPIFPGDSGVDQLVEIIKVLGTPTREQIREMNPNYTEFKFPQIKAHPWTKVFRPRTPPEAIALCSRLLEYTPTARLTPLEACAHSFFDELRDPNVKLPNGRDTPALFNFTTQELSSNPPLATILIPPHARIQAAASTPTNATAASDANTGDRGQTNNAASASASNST

For the molecule `Cn1cc(-c2cc(Cl)c3[nH]nc(C(=O)NC4CCC(F)(F)CC4)c3c2)cn1` [Compound 17, 7-Chloro-N-(4,4-difluorocyclohexyl)-5-(1-methyl-1H-pyrazol-4-yl)-1H-indazole-3-carboxamide], the results for the 50% effective concentration (EC50) in experiment [1], in experiment [2] and in experiment [3] were more than 10000 nM, 1200 nM and more than 10 µM, respectively. Also, the IC50 at DYRK1A kinase and on GSK3β kinase was more than 10000 nM each time.

With `CC(C)(C)n1cc(-c2ccc3[nH]nc(C(=O)N[C@H]4CC[C@H](CN5CC(F)C5)CC4)c3c2)cn1` [Compound 25, 5-(1-(tert-Butyl)-1H-pyrazol-4-yl)-N-((1R,4R)-4-((3-fluoroazetidin-1-yl)methyl)cyclohexyl)-1H-indazole-3-carboxamide], the half-maximal effective concentration (EC50) in experiment [1] was more than 10000 nM; in experiment [2], 1890 nM; in experiment [3], 6.02 µM. For the same molecule, the results for the IC50 on DYRK1A kinase and on GSK3β kinase were 618 nM and 788 nM, respectively.

`CN1CCC(NC(=O)c2n[nH]c3ccc(-c4cc(C(F)(F)F)nn4C)cc23)CC1` [Compound 29, 5-(1-Methyl-3-(trifluoromethyl)-1H-pyrazol-5-yl)-N-(1-methylpiperidin-4-yl)-1H-indazole-3-carboxamide]: the EC50 is more than 10000 nM in experiment [1], more than 10000 nM in experiment [2] and 9.24 µM in experiment [3]. Further, the IC50 at DYRK1A kinase and at GSK3β kinase was more than 10000 nM throughout.

Take `Cc1ncc(-c2ccc3[nH]nc(C(=O)NC4CCN(CC(C)(C)F)CC4)c3c2)n1C` [Compound 42, 5-(1,2-Dimethyl-1H-imidazol-5-yl)-N-(1-(2-fluoro-2-methylpropyl)piperidin-4-yl)-1H-indazole-3-carboxamide]: the results for the half-maximal inhibitory concentration (IC50) on DYRK1A kinase and at GSK3β kinase were 28 nM and 29 nM, respectively.

Regarding `C[C@H]1C[C@H](NC(=O)c2n[nH]c3ccc(-c4cnn(C)c4)cc23)CCN1CC(C)(C)F` [Compound 44, N-((2S,4R)-1-(2-fluoro-2-methylpropyl)-2-methylpiperidin-4-yl)-5-(1-methyl-1H-pyrazol-4-yl)-1H-indazole-3-carboxamide], the half-maximal inhibitory concentration (IC50) at DYRK1A kinase and at GSK3β kinase was 7 nM in each case.

Turning to `O=C(Nc1ccc(F)cc1)c1n[nH]c2ccc(-c3cnn(C4CNC4)c3)cc12` [Compound 47, 5-(1-(Azetidin-3-yl)-1H-pyrazol-4-yl)-N-(4-fluorophenyl)-1H-indazole-3-carboxamide], the concentration for a half-maximal effect (EC50) in experiment [1] was 4580 nM; in experiment [2] it was 5210 nM; in experiment [3] it was more than 10 µM. Further, the IC50 on DYRK1A kinase worked out at 190 nM; on GSK3β kinase, 674 nM.

Molecule `O=C(Nc1ccc(F)cc1)c1n[nH]c2ccc(-c3cnc4n3CCNC4)cc12` [Compound 52, N-(4-Fluorophenyl)-5-(5,6,7,8-tetrahydroimidazo[1,2-a]pyrazin-3-yl)-1H-indazole-3-carboxamide] yielded a half-maximal effective concentration (EC50) in experiment [1] of more than 10000 nM. For the same molecule, the IC50 at DYRK1A kinase and on GSK3β kinase was 11 nM in each case.

On to `O=C(Nc1ccc(F)cc1)c1n[nH]c2ccc(-c3nnc4n3CCNC4)cc12` [Compound 53, N-(4-Fluorophenyl)-5-(5,6,7,8-tetrahydro-[1,2,4]triazolo[4,3-a]pyrazin-3-yl)-1H-indazole-3-carboxamide], for which the concentration giving a half-maximal response (EC50) in experiment [1] is 1840 nM; in experiment [2], more than 10000 nM; in experiment [3], more than 10 µM. Moreover, the IC50 at DYRK1A kinase was determined as 27 nM; at GSK3β kinase, 1 nM.

Turning to `O=C(Nc1ccc(OC(F)F)cc1)c1n[nH]c2ccc(-c3cnn(C4CCNCC4F)c3)cc12` (stereo not shown) [Compound 57, N-(4-(Difluoromethoxy)phenyl)-5-(1-(3-fluoropiperidin-4-yl)-1H-pyrazol-4-yl)-1H-indazole-3-carboxamide], the 50% effective concentration (EC50) in experiment [1] came to 1090 nM; in experiment [2] it was 597 nM; in experiment [3], 0.57 µM. The 50% inhibitory concentration (IC50) at DYRK1A kinase is 1050 nM; at GSK3β kinase, 5380 nM.

`CN1CCC(n2cc(-c3ccc4[nH]nc(C(=O)Nc5ccc(OC(F)F)cc5)c4c3)cn2)CC1` [Compound 58, N-(4-(Difluoromethoxy)phenyl)-5-(1-(1-methylpiperidin-4-yl)-1H-pyrazol-4-yl)-1H-indazole-3-carboxamide]: the EC50 was 1500 nM in experiment [1], 5140 nM in experiment [2] and 0.328 µM in experiment [3]. The results for the IC50 on DYRK1A kinase and at GSK3β kinase were 53 nM and 3020 nM, respectively.

Take `CC(C)(F)CN1CCC(n2cc(-c3ccc4[nH]nc(C(=O)Nc5ccc(OC(F)F)cc5)c4c3)cn2)CC1` [Compound 61, N-(4-(difluoromethoxy)phenyl)-5-(1-(1-(2-fluoro-2-methylpropyl)piperidin-4-yl)-1H-pyrazol-4-yl)-1H-indazole-3-carboxamide]: the EC50 in experiment [1] was more than 10000 nM; in experiment [2], 9 nM; in experiment [3], more than 10 µM. The IC50 on DYRK1A kinase is 9940 nM; on GSK3β kinase it was 9370 nM.

For the molecule `O=C(Nc1ccc(OC(F)F)cc1)c1n[nH]c2ccc(-c3cnn(C4CCOCC4)c3)cc12` [Compound 62, N-(4-(Difluoromethoxy)phenyl)-5-(1-(tetrahydro-2H-pyran-4-yl)-1H-pyrazol-4-yl)-1H-indazole-3-carboxamide], the EC50 in experiment [1] was 2280 nM; in experiment [2] it was 3100 nM; in experiment [3], more than 10 µM. Moreover, the IC50 at DYRK1A kinase was 3920 nM; on GSK3β kinase it was more than 10000 nM.

`O=C(Nc1ccc(OC(F)F)cc1)c1n[nH]c2ccc(-c3cnc4n3CCNC4)cc12` [Compound 64, N-(4-(Difluoromethoxy)phenyl)-5-(5,6,7,8-tetrahydroimidazo[1,2-a]pyrazin-3-yl)-1H-indazole-3-carboxamide]: the EC50 in experiment [1] was found to be 937 nM; in experiment [2], 1530 nM; in experiment [3], 1.7 µM. For the same molecule, the values for the half-inhibitory concentration (IC50) at DYRK1A kinase and on GSK3β kinase were 16 nM and 21 nM, respectively.

As to `Cn1cc(-c2cc3c(C(=O)Nc4ccc(CN5CC(F)C5)cc4)n[nH]c3cc2F)cn1` [Compound 67, 6-Fluoro-N-(4-((3-fluoroazetidin-1-yl)methyl)phenyl)-5-(1-methyl-1H-pyrazol-4-yl)-1H-indazole-3-carboxamide], the concentration giving a half-maximal response (EC50) came to 549 nM in experiment [1], 150 nM in experiment [2] and 1 µM in experiment [3]. In addition, the concentration for half-maximal inhibition (IC50) at DYRK1A kinase amounted to 9 nM; on GSK3β kinase, 35 nM.

Regarding `Cn1cc(-c2cc3c(C(=O)Nc4ccc(CN5CCC(F)(F)CC5)cc4)n[nH]c3cc2F)cn1` [Compound 76, N-(4-((4,4-Difluoropiperidin-1-yl)methyl)phenyl)-6-fluoro-5-(1-methyl-1H-pyrazol-4-yl)-1H-indazole-3-carboxamide], the values for the EC50 in experiment [1], in experiment [2] and in experiment [3] were 1290 nM, 174 nM and 6.2 µM, respectively. Also, the IC50 was determined as 107 nM on DYRK1A kinase and 302 nM at GSK3β kinase.
